# Test results reported in patent US20040009181A1, “Treatment of ophthalmic conditions” (priority 2002, published 2004).
# Ends that are not written are not given here.
# How the values were obtained:
# [1] = centrally administered; Peptides 9, 1285-8 (1989); cited from earlier work
# [2] = tested on: Herpes zoster virus (HZV); conditions: Eye 8: 70-74 (1994); cited from earlier work
# corneal epithelial cells = conditions: Lens Eye Toxic. Res. 6: 59-85 (1989); cited from earlier work
# [3] = tested on: C. albicans (clinical isolate); experiment: C. albicans viability, colony forming units (incl. comparison with fluconazole and ACTH); format: cell-based, Candida albicans; design: potency in reducing C. albicans viability / inhibition of C. albicans CFU: dose or concentration left out as unconfirmed; conditions: for potency in reducing C. albicans viability: comparison among peptides, fluconazole and ACTH; for effect on C. albicans colony forming units: 10^−15 to 10^−4M, 2 hours at 37° C., FIG. 7
# Procedure: C. albicans (clinical isolate) were obtained from the collection of the Department of Microbiology, Ospedale Maggiore di Milano. C. albicans were maintained on Sabouraud'[…] periodically transferred to Sabouraud's agar plates and incubated for 48 hours at 28° C. To prepare stationary growth phase yeast, a colony was taken from the agar plate and transferred into 30 ml Sabouraud-dextrose broth and incubated for 72 hours at 32° C. Cells were centrifuged at 100×g for 10 minutes and the pellet was washed twice with distilled water. Cells were counted and suspended in Hank's balanced salt solution (“HBSS”) to the desired concentration. Viability, determined by the exclusion of 0.01% methylene blue, remained >98%. […] ID NO. […] Cells were then washed in cold distilled water and diluted with HBSS to a concentration of 100 organisms/ml. One ml aliquots were dispensed on blood agar plates and incubated for 48 hours at 37° C. Organism viability was estimated from the number of colonies formed. […] (SEQ. […] Fluconazole is a well established antifungal agent. The potency of the peptides in reducing C. albicans viability is studied in comparison with fluconazole and ACTH using similar procedures as in Example VII. […] There were at least six replicates for each concentration of peptide. […] Their inhibitory activity was similar to that of fluconazole. The “core” α-MSH sequence, α-MSH [4-10] (SEQ. […] (SEQ. ID NO. 3) and α-MSH [11-13] […] (SEQ. ID NO. 4) (p<0.05).
# Keratomycosis = experiment: Treatment of fungal ophthalmic infection, Keratomycosis, patient; format: in vivo; conditions: ophthalmic aqueous solution 10^−5 M, 3-5 drops four times daily for 7 days
# From the text: Upon examination, a patient is diagnosed as having Keratomycosis.
# [4] = tested on: S. aureus with recombinant human urokinase; experiment: Urokinase-induced growth-enhancement of S. aureus, colony counts; format: cell-based, Staphylococcus aureus; conditions: 10^−6 M; urokinase 500 U, four hours at 37° C.; FIG. 6; listed as α-MSH [11-13]
# Procedure: In this experiment, the influence of α-MSH on urokinase-induced growth-enhancement is determined. Hart, D. A.; Loule, T.; Krulikl, W.; Reno, C., Staphylococcus Aureus Strains Differ in Their in Vitro Responsiveness to Human Urokinase: Evidence that Methicillin-Resistant Strains are Predominantly Nonresponsive to the Growth-Enhancing Effects of Urokinase, Can. J. Microbiol. 42, 1024-31 […]. […] (SEQ. ID NO. 4) or α-MSH [11-13] (SEQ. ID NO. […]) at 10^−6 M. Appropriate dilutions of S. aureus were dispensed on agar plates and colonies counted after 24 hours incubation at 37° C.
# [5] = tested on: HIV-1 RNA in PMA-stimulated U1 cells; experiment: HIV transcription, Northern blot analysis of HIV-RNA in PMA-stimulated U1 cells; format: cell-based; conditions: 10^−5M; PMA (1 ng/mL) stimulated U1 cells, 24 h; FIG. 4
# From the text: Total RNA was extracted by the guanidine thiocyanate phenol method using an RNA isolation kit (Tripure, Boehringer Mannheim, Indianapolis, Ind.), following the manufacturer's instructions. Ten μg of total RNA were separated by 0.8% agarose/formaldehyde gel electrophoresis and transferred onto nylon membrane. The filters were baked and hybridized for 18 hr with α^32 P-labeled HIV-full length probe (kind gift of L. Turchetto and E. Vicenzi, S. Raffaele Hospital, Milan, Italy). The radiolabeling reaction was performed using a DNA labeling kit (Ready-to-go, Pharmacia Biotech, San Francisco, Calif.). Filters were washed and exposed to X-ray film for 5 days. The labeled probe was removed by washing at 80° C. in 0.1×SSC containing 0.1% sodium dodecyl sulphate and then rehybridized with α^32 P-labeled glyceraldehyde-3-phosphate dehydrogenase (GAPDH) cDNA probe. Densitometric analysis was performed using ImageMaster™ VDS 3.0 software (Pharmacia Biotech) and results were expressed as density units.
# [6] = tested on: Herpes simplex virus blepharitis; experiment: Treatment of viral ophthalmic infection, HSV blepharitis, patient; format: in vivo; conditions: ophthalmic aqueous solution 10^−5 M, 3-5 drops four times daily for 7 days
# Procedure: A patient is diagnosed as having Herpes simplex virus blepharitis. […] The patient is treated with 3-5 drops of the ophthalmic aqueous solution onto the surface of eyes four times daily for 7 days.
# [7] = tested on: HIV-1 infected promonocytic U1 cells; experiment: HIV-p24 and reverse transcriptase release by U1 cells stimulated by IL-6, IL-10, PMA or crowding; format: cell-based; conditions: 10^−5 M; U1 cells induced by IL-6, IL-10, PMA, and in crowding conditions; FIG. 3
# Procedure: In all experiments, each condition was tested in triplicate.
# [8] = tested on: Staphylococcus aureus (ATCC29213); experiment: S. aureus viability, colony forming units; format: cell-based; design: dose or concentration left out as unconfirmed; conditions: 2 hours at 37° C.; FIG. 5
# Procedure: Staphylococcus aureus (ATCC29213) was obtained from the collection of the Department of Microbiology, Ospedale Maggiore di Milano. […] (SEQ. ID NO 4), α-MSH [11-13] […] S. aureus were then washed in cold distilled water and diluted with HBSS to a concentration of 100 organisms/ml. One ml aliquots were dispensed on blood agar plates and incubated for 24 hours at 37° C. Organism viability was estimated from the number of colony forming units. (SEQ. ID NO. 4) and α-MSH [11-13]
# [9] = tested on: HIV-1 infected promonocytic U1 cell line; experiment: HIV-p24 release by TNF-α stimulated U1 cells (ELISA); format: cell-based; conditions: 10^−13 to 10^−4 M, FIG. 2
# From the text: Before use, cells were washed three times with HBSS (Gibco) to remove extracellular virus.
# [10] = tested on: infectious keratitis of bacterial etiology; experiment: Treatment of bacterial ophthalmic infection, bacterial keratitis, patient; format: in vivo; conditions: ophthalmic aqueous solution 10^−5 M, 3-5 drops four times daily for 7 days
# From the text: A patient presents complaining of eye pain when blinking and blurred vision. Upon examination the cornea appears subtly less transparent than normal cornea and may have ulcers on its surface. The diagnosis is infectious keratitis of bacterial etiology, which is confirmed by laboratory findings.
# [11] = Peptides 12, 767-71 (1991); cited from earlier work
# [12] = Peptides 6, 273-5 (1985); cited from earlier work
compound,measurement,setting,value
"8-13 sequence: α-MSH 8-13 sequence (RWGKPV; ends and bridges not checked; UniProt P01189 145-150, looked up, fragment)",antipyretic potency relative to α-MSH (11-13) sequence,[1],greater than that of the 11-13 sequence
"9-13 sequence: α-MSH 9-13 sequence (WGKPV; ends and bridges not checked; UniProt P01189 146-150, looked up, fragment)",antipyretic potency relative to α-MSH (11-13) sequence,[1],almost devoid of activity
"10-13 sequence: α-MSH (11-13) with glycine added to form the 10-13 sequence (GKPV; ends and bridges not checked; UniProt P01189 147-150, looked up, fragment)",antipyretic potency relative to α-MSH (11-13) sequence,[1],slightly decreased potency
Nc1nc2c(ncn2COCCO)c(=O)[nH]1 [Acyclovir],preventative effect on ocular complications of HZV,[2],little or no preventative effect
O=c1[nH]c(=O)n([C@H]2C[C@H](O)[C@@H](CO)O2)cc1I [Idoxurine],toxicity to corneal epithelial cells,corneal epithelial cells,toxic to corneal epithelial cells
"ACTH (1-39): Adrenocorticotropic Hormone (1-39) (SYSMEHFRWGKPVGKKRRPVKVYPNGAEDESAEAFPLEF; Corticotropin; UniProt P01189 138-176, looked up) [reference compound]",potency in reducing C. albicans viability,[3]; FIG. 8,did not reduce
"ACTH (18-39): ACTH fragment (18-39), also called CLIP [reference compound]",potency in reducing C. albicans viability,[3]; FIG. 8,did not reduce
"HFRWGKPV (Ac-HFRWGKPV-NH2) [α-MSH [6-13], α-MSH from residue 6 through residue 13]",potency in reducing C. albicans viability,[3]; FIG. 8,most effective
KPV,outcome of Keratomycosis after treatment,Keratomycosis,either shows marked improvement or fully recovers
same,effect on C. albicans colony forming units,[3],greatly reduced
same,potency in reducing C. albicans viability,[3]; FIG. 8,most effective
same,effect on urokinase-enhanced S. aureus colony formation,[4],significantly inhibited the enhancing effect of urokinase
same,reduction of spliced HIV-1 RNA,[5],approximately 50%
same,reduction of unspliced HIV-1 RNA,[5],approximately 50%
same,HSV blepharitis symptom after treatment,[6],substantially reduced
same,effect on RT (reverse transcriptase) release,[7],significantly inhibited
same,effect on p24 release,[7],significantly inhibited
same,effect on S. aureus colony formation (CFU),[8],inhibited
same,effect on p24 release,[9],significantly inhibited
same,outcome of bacterial keratitis after treatment,[10],either shows marked improvement or fully recovers
MEHFRWG (Ac-MEHFRWG-NH2) [α-MSH [4-10]],inhibition of C. albicans CFU,[3]; FIG. 8,approximately 50%
Val-Pro-Lys-AcCys-s-s-CysAc-Lys-Pro-Val [KPV dimer],effect on C. albicans colony forming units,[3],inhibited
same,effect on S. aureus colony formation (CFU),[8],inhibited
[D-K^11] α-MSH 11-13,anti-inflammatory activity relative to L-form tripeptide α-MSH 11-13,[11],same general potency as the L-form
[Nle^4 DPhe^7]-α-MSH,potency in reducing fever relative to parent peptide α-MSH,[12],approximately ten times more potent than the parent peptide
